18 compounds from patent US10280166B2, “2-(1H-indazol-3-yl)-3H-imidazo[4,5-B]pyridine and therapeutic uses thereof” (Samumed, LLC, priority 2014, dated 2019) can be followed below.

The subject of assay [1] is Wnt activity (SW480 colon carcinoma cells stably expressing the Sp5-Luc reporter gene). In words: Sp5-Luc reporter gene screening assay for Wnt activity in SW480 cells. It counts as cell-based. The settings on record: Homo sapiens, 42 h incubation, luminescence. An excerpt: The screening assay for Wnt activity is described as follows. Reporter cell lines can be generated by stably transducing cancer cell lines (e.g., colon cancer) or primary cells (e.g., IEC-6 intestinal cells) with a lentiviral construct that includes a Wnt-responsive promoter driving expression of the firefly luciferase gene.
SW480 colon carcinoma cells were transduced with a lentiviral vector expressing luciferase with a human Sp5 promoter consisting of a sequence of eight TCF/LEF binding sites. SW480 cells stably expressing the Sp5-Luc reporter gene and a hygromycin resistance gene were selected by treatment with 150 μg/ml of hygromycin for 7 days. These stably transduced SW480 cells were expanded in cell culture and used for all further screening activities. For Sp5-Luc reporter gene assays, the cells were plated at 10,000 cells/well in 96-well plates with growth medium containing 10% fetal calf serum and incubated overnight at 37° C. and 5% CO2. Each compound was dissolved in DMSO as a 10 mM stock in standard j-vials and used to prepare compound source plates in dose-response format with 3-fold serial dilutions and a 10 mM top concentration. Compound transfer from serially diluted source plates to assay plates containing the cells was accomplished using a pintool (Multimek 96, Beckman equipped with V&P Scientific FP1S50H pins) based liquid handling protocol. This protocol used a slotted pin to transfer 50 nl of compound from a source plate well to an assay plate well containing 50 μl of cells in growth medium. […] Control wells received 50 nl of DMSO treatment for normalization and calculating IC50 values. The treated cells were incubated at 37° C. and 5% CO2 for an additional forty-two hours. Following incubation, the growth medium was removed and 50 μl of BrightGlo luminescence reagent (Promega) was added to each well of the 96-well assay plates. The plates were placed on an orbital shaker for 5 min and then luminescence was quantified on the Victor3 (Perkin Elmer) plate reader. Readings were normalized to DMSO only treated cells, and normalized activities were utilized for IC50 calculations using the dose-response log (inhibitor) vs. response—variable slope (four parameters) nonlinear regression feature available in GraphPad Prism 5.0 or 6.0.

The subject of assay [2] is primary human fibroblasts derived from IPF patients (LL29 cells). In words: Inhibition of fibrosis (αSMA) in TGF-β1 treated primary human fibroblasts from IPF patients. To be noted: Fibroblast, 96 h, TGF-β1 20 ng/mL, 4 days, % αSMA positive cells. The assay is classed as cell-based. The source says: The above synthesized compounds were screened using primary human fibroblasts (derived from IPF patients) treated with TGF-β1 to determine their ability to inhibit the fibrotic process.
Primary human fibroblasts derived from IPF patients (LL29 cells) [^1Xiaoqiu Liu, et.al., “Fibrotic Lung Fibroblasts Show Blunted Inhibition by cAMP Due to Deficient cAMP Response Element-Binding Protein Phosphorylation”, Journal of Pharmacology and Experimental Therapeutics (2005), 315(2), 678-687; ^2Watts, K. L., et.al., “RhoA signaling modulates cyclin D1 expression in human lung fibroblasts; implications for idiopathic pulmonary fibrosis”, Respiratory Research (2006), 7(1), 88] were obtained from American Type Culture Collection (ATCC) and expanded in F12 medium supplemented with 15% Fetal Bovine Serum and Penicillin/Streptomycin.
Each compound was dissolved in DMSO as a 10 mM stock and used to prepare compound source plates. Serial dilution (1:2, 11-point dose-response curves from 10 μM to 1.87 nM) and compound transfer was performed using the ECHO 550 (Labcyte, Sunnyvale, Calif.) into 384-well clear bottom assay plates (Greiner Bio-One) with appropriate DMSO backfill for a final DMSO concentration of 0.1%. LL29 cells were plated at 1,500 cells/well in 80 μl/well F12 medium supplemented with 1% Fetal Bovine Serum. One hour after addition of the cells, TGF-β1 (Peprotech; 20 ng/mL) was added to the plates to induce fibrosis (ref. 1 and 2 above). Wells treated with TGF-β1 and containing DMSO were used as controls. Cells were incubated at 37° C. and 5% CO2 for 4 days. Following incubation for 4 days, SYTOX green nucleic acid stain (Life Technologies [Thermo Fisher Scientific]) was added to the wells at a final concentration of 1 uM and incubated at room temperature for 30 min. Cells were then fixed using 4% formaldehyde (Electron Microscopy Sciences), washed 3 times with PBS followed by blocking and permeabilization using 3% Bovine Serum Albumin (BSA; Sigma) and 0.3% Triton X-100 (Sigma) in PBS. Cells were then stained with antibody specific to α-smooth muscle actin (αSMA; Abcam) (ref. 1 and 2 above) in 3% Bovine Serum Albumin (BSA; Sigma) and 0.3% Triton X-100 (Sigma) in PBS, and incubated overnight at 4° C. Cells were then washed 3 times with PBS, followed by incubation with Alexa Flor-647 conjugated secondary antibody (Life Technologies [Thermo Fisher Scientific]) and DAPI at room temperature for 1 hour. Cells were then washed 3 times with PBS and plates were sealed for imaging. αSMA staining was imaged by excitation at 630 nm and emission at 665 nm and quantified using the Compartmental Analysis program on the CellInsight CX5 (Thermo Scientific). Dead or apoptotic cells were excluded from analysis based on positive SYTOX green staining. % of total cells positive for αSMA were counted in each well and normalized to the average of 11 wells treated with TGF-β1 on the same plate using Dotmatics' Studies Software. The normalized averages (fold change over untreated) of 3 replicate wells for each compound concentration were used to create dose-responses curves and EC50 values were calculated using non-linear regression curve fit in the Dotmatics' Studies Software. The EC50 values are reported.

Take `CN(C)Cc1cncc(-c2ccc3[nH]nc(-c4nc5cccnc5[nH]4)c3c2)c1` [Compound 247, 1-(5-(3-(3H-Imidazo[4,5-b]pyridin-2-yl)-1H-indazol-5-yl)pyridin-3-yl)-N,N-dimethylmethanamine]: the IC50 in assay [1] was determined as 77 nM. The same compound came in with an EC50 in assay [2] of 0.184 nM.

With `c1ccc(CNCc2cncc(-c3ccc4[nH]nc(-c5nc6c(-c7ccsc7)ccnc6[nH]5)c4c3)c2)cc1` [Compound 283, N-Benzyl-1-(5-(3-(7-(thiophen-3-yl)-3H-imidazo[4,5-b]pyridin-2-yl)-1H-indazol-5-yl)pyridin-3-yl)methanamine], in assay [1], 137 nM corresponded to half-maximal inhibition (IC50). Further, it took 0.605 nM to reach a half-maximal effect in assay [2] (EC50).

For `CN(C)CCNc1cc(F)cc(-c2ccnc3[nH]c(-c4n[nH]c5ccc(-c6cncc(CNCC7CCCC7)c6)cc45)nc23)c1` [Compound 466, N^1-(3-(2-(5-(5-(((Cyclopentylmethyl)amino)methyl)pyridin-3-yl)-1H-indazol-3-yl)-3H-imidazo[4,5-b]pyridin-7-yl)-5-fluorophenyl)-N^2,N^2-dimethylethane-1,2-diamine], half-maximal inhibition in assay [1] (IC50) required 442 nM. In assay [2], this compound displayed an EC50 of 1.11 nM.

In assay [1], `Nc1cncc(-c2ccc3[nH]nc(-c4nc5c(-c6cccnc6)ccnc5[nH]4)c3c2)c1` [Compound 81, 5-(3-(7-(Pyridin-3-yl)-3H-imidazo[4,5-b]pyridin-2-yl)-1H-indazol-5-yl)pyridin-3-amine] had an IC50 of 5.8 nM. Further, the EC50 in assay [2] is 0.009 nM.

As for `O=C(Nc1cncc(-c2ccc3[nH]nc(-c4nc5c(-c6ccsc6)ccnc5[nH]4)c3c2)c1)C1CC1` [Compound 279, N-(5-(3-(7-(Thiophen-3-yl)-3H-imidazo[4,5-b]pyridin-2-yl)-1H-indazol-5-yl)pyridin-3-yl)cyclopropanecarboxamide], the IC50 in assay [1] amounted to 5.2 nM. In assay [2], this compound displayed an EC50 of 0.306 nM.

Regarding `CC(C)(C)CC(=O)Nc1cncc(-c2ccc3[nH]nc(-c4nc5cccnc5[nH]4)c3c2)c1` [Compound 250, N-(5-(3-(3H-Imidazo[4,5-b]pyridin-2-yl)-1H-indazol-5-yl)pyridin-3-yl)-3,3-dimethylbutanamide], in assay [1], the IC50 amounted to 124 nM. In addition, a half-maximal response in assay [2] (EC50) required 2.6 nM.

`FC1(F)CCN(Cc2cncc(-c3ccc4[nH]nc(-c5nc6c(N7CCCCC7)ccnc6[nH]5)c4c3)c2)C1` [Compound 181, 2-(5-(5-((3,3-Difluoropyrrolidin-1-yl)methyl)pyridin-3-yl)-1H-indazol-3-yl)-7-(piperidin-1-yl)-3H-imidazo[4,5-b]pyridine] gave an IC50 in assay [1] of 2580 nM. For the same compound, the EC50 in assay [2] stood at 0.009 nM.

Turning to `Cc1ccncc1-c1ccc2[nH]nc(-c3nc4c(-c5ccsc5)ccnc4[nH]3)c2c1` [Compound 265, 2-(5-(4-Methylpyridin-3-yl)-1H-indazol-3-yl)-7-(thiophen-3-yl)-3H-imidazo[4,5-b]pyridine], 9.4 nM corresponded to half-maximal inhibition in assay [1] (IC50). Also, it took 0.131 nM to reach a half-maximal effect in assay [2] (EC50).

With `c1cc(-c2ccoc2)c2nc(-c3n[nH]c4ccc(-c5cncc(CNCC6CCCC6)c5)cc34)[nH]c2n1` [Compound 310, 1-Cyclopentyl-N-((5-(3-(7-(furan-3-yl)-3H-imidazo[4,5-b]pyridin-2-yl)-1H-indazol-5-yl)pyridin-3-yl)methyl)methanamine], the IC50 in assay [1] was 1270 nM. The EC50 in assay [2] is 9.99 nM.

`CN(C)CCOc1cncc(-c2ccc3[nH]nc(-c4nc5c(-c6cccc(F)c6)ccnc5[nH]4)c3c2)c1` [Compound 1883, 2-((5-(3-(7-(3-Fluorophenyl)-3H-imidazo[4,5-b]pyridin-2-yl)-1H-indazol-5-yl)pyridin-3-yl)oxy)-N,N-dimethylethanamine]: the EC50 in assay [2] is 0.095 nM.

On to `O=C(CC1CCNCC1)Nc1cncc(-c2ccc3[nH]nc(-c4nc5c(-c6cccc(F)c6)ccnc5[nH]4)c3c2)c1` [Compound 1881, N-(5-(3-(7-(3-Fluorophenyl)-3H-imidazo[4,5-b]pyridin-2-yl)-1H-indazol-5-yl)pyridin-3-yl)-2-(piperidin-4-yl)acetamide], for which inhibition in assay [1] was half-maximal at 65 nM (IC50). In assay [2], this compound displayed an EC50 of 0.071 nM.

`CN1CCN(c2ccnc3[nH]c(-c4n[nH]c5ccc(-c6cncc(NC(=O)C7CCCC7)c6)cc45)nc23)CC1` [Compound 229, N-(5-(3-(7-(4-Methylpiperazin-1-yl)-3H-imidazo[4,5-b]pyridin-2-yl)-1H-indazol-5-yl)pyridin-3-yl)cyclopentanecarboxamide] showed an IC50 in assay [1] of 284 nM. The EC50 in assay [2] came to 1.07 nM.

In turn, `CN(C)Cc1cncc(-c2ccc3[nH]nc(-c4nc5c(-c6cccc(F)c6)ccnc5[nH]4)c3c2)c1` [Compound 13, 1-(5-(3-(7-(3 -Fluorophenyl)-3H-imidazo[4,5-b]pyridin-2-yl)-1H-indazol-5-yl)pyridin-3-yl)-N,N-dimethylmethanamine] returned an IC50 in assay [1] of 116 nM. Also, in assay [2], the EC50 was 1.15 nM.

`CCC(=O)Nc1cncc(-c2ccc3[nH]nc(-c4nc5c(N6CCCCC6)ccnc5[nH]4)c3c2)c1` [Compound 157, N-(5-(3-(7-(Piperidin-1-yl)-3H-imidazo[4,5-b]pyridin-2-yl)-1H-indazol-5-yl)pyridin-3-yl)propionamide]: the IC50 in assay [1] amounted to 15 nM. In assay [2], the EC50 came to 0.605 nM.

`CN(C)c1cncc(-c2ccc3[nH]nc(-c4nc5c(N6CCCCC6)ccnc5[nH]4)c3c2)c1` [Compound 163, N,N-Dimethyl-5-(3-(7-(piperidin-1-yl)-3H-imidazo[4,5-b]pyridin-2-yl)-1H-indazol-5-yl)pyridin-3-amine] registered an IC50 in assay [1] of 122 nM. In assay [2], the EC50 came to 0.009 nM.

Turning to `O=C(Cc1ccccc1)Nc1cncc(-c2ccc3[nH]nc(-c4nc5c(-c6ccsc6)ccnc5[nH]4)c3c2)c1` [Compound 270, 2-Phenyl-N-(5-(3-(7-(thiophen-3-yl)-3H-imidazo[4,5-b]pyridin-2-yl)-1H-indazol-5-yl)pyridin-3-yl)acetamide], half-maximal inhibition in assay [1] (IC50) was put at 16.3 nM. It took 0.01 nM to reach a half-maximal effect in assay [2] (EC50).

In assay [1], `FC1(F)CCN(Cc2cncc(-c3ccc4[nH]nc(-c5nc6c(-c7cccs7)ccnc6[nH]5)c4c3)c2)C1` [Compound 337, 2-(5-(5-((3,3-Difluoropyrrolidin-1-yl)methyl)pyridin-3-yl)-1H-indazol-3-yl)-7-(thiophen-2-yl)-3H-imidazo[4,5-b]pyridine] gave an IC50 of 15 nM. In assay [2], this compound yielded an EC50 of 1.31 nM.

In turn, `O=C(Nc1cncc(-c2ccc3[nH]nc(-c4nc5c(-c6ccc(F)cc6)ccnc5[nH]4)c3c2)c1)C1CCC1` [Compound 46, N-(5-(3-(7-(4-Fluorophenyl)-3H-imidazo[4,5-b]pyridin-2-yl)-1H-indazol-5-yl)pyridin-3-yl)cyclobutanecarboxamide] returned a 50% inhibitory concentration (IC50) in assay [1] of 2 nM. For the same compound, it took 0.08 nM to reach a half-maximal effect in assay [2] (EC50).
